Experimental data from publication PMC9352624, “Going deeper into the toxicokinetics of synthetic cannabinoids: in vitro contribution of human carboxylesterases” (Archives of Toxicology, 2022).

B1: hCES1b (Homo sapiens) (protein)
chain: GHPSSPPVVDTVHGKVLGKFVSLEGFAQPVAIFLGIPFAKPPLGPLRFTPPQPAEPWSFVKNATSYPPMCTQDPKAGQLLSELFTNRKENIPLKLSEDCLYLNIYTPADLTKKNRLPVMVWIHGGGLMVGAASTYDGLALAAHENVVVVTIQYRLGIWGFFSTGDEHSRGNWGHLDQVAALRWVQDNIASFGGNPGSVTIFGESAGGESVSVLVLSPLAKNLFHRAISESGVALTSVLVKKGDVKPLAEQIAITAGCKTTTSAVMVHCLRQKTEEELLETTLKMKFLSLDLQGDPRESQPLLGTVIDGMLLLKTPEELQAERNFHTVPYMVGINKQEFGWLIPMQLMSYPLSEGQLDQKTAMSLLWKSYPLVCIAKELIPEATEKYLGGTDDTVKKKDLFLDLIADVMFGVPSVIVARNHRDAGAPTYMYEFQYRPSFSSDMKPKTVIGDHGDELFSVFGAPFLKEGASEEEIRLSKMVMKFWANFARNGNPNGEGLPHWPEYNQKEGYLQIGANTQAAQKLKDKEVAFWTNLFAKKAVEKPPQTEHIEL
B2: hCES1c (Homo sapiens) (protein)
chain: GHPSSPPVVDTVHGKVLGKFVSLEGFAQPVAIFLGIPFAKPPLGPLRFTPPQPAEPWSFVKNATSYPPMCTQDPKAGQLLSELFTNRKENIPLKLSEDCLYLNIYTPADLTKKNRLPVMVWIHGGGLMVGAASTYDGLALAAHENVVVVTIQYRLGIWGFFSTGDEHSRGNWGHLDQVAALRWVQDNIASFGGNPGSVTIFGESAGGESVSVLVLSPLAKNLFHRAISESGVALTSVLVKKGDVKPLAEQIAITAGCKTTTSAVMVHCLRQKTEEELLETTLKMKFLSLDLQGDPRESQPLLGTVIDGMLLLKTPEELQAERNFHTVPYMVGINKQEFGWLIPMLMSYPLSEGQLDQKTAMSLLWKSYPLVCIAKELIPEATEKYLGGTDDTVKKKDLFLDLIADVMFGVPSVIVARNHRDAGAPTYMYEFQYRPSFSSDMKPKTVIGDHGDELFSVFGAPFLKEGASEEEIRLSKMVMKFWANFARNGNPNGEGLPHWPEYNQKEGYLQIGANTQAAQKLKDKEVAFWTNLFAKKAVEKPPQTEHIEL

How the values were obtained:
hCES1b [1] = molecular target: T1, hCES1b (Homo sapiens, UniProt P23141); assay: Initial activity screening with recombinant hCES1b; conditions: 100 µM substrate, 30 min, 37 °C, 0.2 µg/µL protein, LC–ITMS; for Relative amount of hydrolysis metabolite formed, hCES1b: mean n = 2
T1 sequence (P23141 18-567): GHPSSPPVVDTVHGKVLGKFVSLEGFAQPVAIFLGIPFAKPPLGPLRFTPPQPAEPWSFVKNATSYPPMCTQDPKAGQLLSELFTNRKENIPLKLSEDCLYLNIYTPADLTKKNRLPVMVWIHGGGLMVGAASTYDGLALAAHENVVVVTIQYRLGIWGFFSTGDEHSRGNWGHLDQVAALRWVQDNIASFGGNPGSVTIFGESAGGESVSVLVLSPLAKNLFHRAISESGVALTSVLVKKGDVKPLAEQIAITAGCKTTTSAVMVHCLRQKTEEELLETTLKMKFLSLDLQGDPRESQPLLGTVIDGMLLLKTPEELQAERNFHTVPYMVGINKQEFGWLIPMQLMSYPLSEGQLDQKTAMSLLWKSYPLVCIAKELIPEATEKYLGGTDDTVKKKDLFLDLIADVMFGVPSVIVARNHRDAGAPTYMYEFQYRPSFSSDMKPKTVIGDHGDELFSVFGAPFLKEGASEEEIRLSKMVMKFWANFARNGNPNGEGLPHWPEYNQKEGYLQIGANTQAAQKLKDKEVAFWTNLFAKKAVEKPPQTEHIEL

hCES2 = molecular target: T2, hCES2 (Homo sapiens, UniProt O00748); assay: Initial activity screening with recombinant hCES2; conditions: 100 µM substrate, 30 min, 37 °C, 0.2 µg/µL protein, LC–ITMS
T2 sequence (O00748 27-559): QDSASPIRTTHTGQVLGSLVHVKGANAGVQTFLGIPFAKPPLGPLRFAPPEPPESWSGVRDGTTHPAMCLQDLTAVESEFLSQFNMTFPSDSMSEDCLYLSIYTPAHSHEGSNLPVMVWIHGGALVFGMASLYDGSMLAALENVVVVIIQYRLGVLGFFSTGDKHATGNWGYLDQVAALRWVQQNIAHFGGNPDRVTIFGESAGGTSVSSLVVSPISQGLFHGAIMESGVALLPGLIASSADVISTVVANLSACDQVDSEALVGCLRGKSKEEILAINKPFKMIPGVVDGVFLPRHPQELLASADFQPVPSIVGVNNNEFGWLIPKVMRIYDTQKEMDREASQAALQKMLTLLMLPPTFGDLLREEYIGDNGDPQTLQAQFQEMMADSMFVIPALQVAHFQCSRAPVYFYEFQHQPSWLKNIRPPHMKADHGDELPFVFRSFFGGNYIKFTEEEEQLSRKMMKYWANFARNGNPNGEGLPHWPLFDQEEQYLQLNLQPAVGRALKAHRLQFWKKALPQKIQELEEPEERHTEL

[2] = Initial activity screening with pooled human liver microsomes; conditions: 100 µM substrate, 30 min, 37 °C, 2 µg/µL protein, LC–ITMS, mean n = 2
hCES1c [3] = molecular target: T3, hCES1c (Homo sapiens, UniProt P23141); assay: Initial activity screening with recombinant hCES1c; conditions: 100 µM substrate, 30 min, 37 °C, 0.2 µg/µL protein, LC–ITMS; for Relative amount of hydrolysis metabolite formed, hCES1c: mean n = 2
T3 sequence (P23141 18-566 isoform P23141-3 limits assumed): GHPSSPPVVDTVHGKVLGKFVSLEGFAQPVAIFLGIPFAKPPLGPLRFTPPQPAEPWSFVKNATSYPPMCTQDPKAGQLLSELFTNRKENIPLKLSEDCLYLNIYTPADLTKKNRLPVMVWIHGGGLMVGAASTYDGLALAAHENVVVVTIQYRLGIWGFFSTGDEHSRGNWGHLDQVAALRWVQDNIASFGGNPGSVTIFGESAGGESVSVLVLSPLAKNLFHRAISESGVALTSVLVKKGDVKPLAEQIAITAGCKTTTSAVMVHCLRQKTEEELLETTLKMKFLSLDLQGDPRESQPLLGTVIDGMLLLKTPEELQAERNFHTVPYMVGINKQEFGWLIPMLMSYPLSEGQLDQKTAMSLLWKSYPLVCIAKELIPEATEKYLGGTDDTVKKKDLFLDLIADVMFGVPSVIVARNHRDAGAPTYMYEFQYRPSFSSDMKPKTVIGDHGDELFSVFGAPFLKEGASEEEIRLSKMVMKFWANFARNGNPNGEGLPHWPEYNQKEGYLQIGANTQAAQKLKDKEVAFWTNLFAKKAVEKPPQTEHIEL

[4] = Initial activity screening with pooled human liver S9 fraction; conditions: 100 µM substrate, 30 min, 37 °C, 2 µg/µL protein, LC–ITMS, mean n = 2
hCES1c [5] = molecular target: T3, hCES1c; assay: Enzyme kinetic studies of ester hydrolysis with hCES1c
hCES1b [6] = molecular target: T1, hCES1b; assay: Enzyme kinetic studies of ester hydrolysis with hCES1b
not read [7] = substrate: COC(=O)C(Cc1ccccc1)NC(=O)c1cn(CCCCCF)c2ccccc12; assay: not read; conditions: other: ± S.D.; Michaelis–Menten fit, conditions of Table 1; pH 7.4
not read [8] = substrate: C=CCCCn1cc(C(=O)N[C@H](C(=O)OC)C(C)C)c2ccccc21; assay: not read; conditions: other: ± S.D.; Michaelis–Menten fit, conditions of Table 1; pH 7.4
[9] = ± S.D., peak area ratio metabolite/internal standard

Molecule | Hydrolysis of carboxamide linker, hCES1b (hCES1b [1]) | Hydrolysis of carboxamide/ester in head group, hCES1b (hCES1b [1]) | Relative amount of hydrolysis metabolite formed, hCES1b (hCES1b [1]) | Hydrolysis of carboxamide linker, hCES2 (hCES2) | Hydrolysis of carboxamide/ester in head group, hCES2 (hCES2) | Relative amount of hydrolysis metabolite formed, hCES2 (hCES2; mean n = 2) [%] | Relative amount of hydrolysis metabolite formed, pHLM [2] | Hydrolysis of carboxamide linker, hCES1c (hCES1c [3]) | Hydrolysis of carboxamide/ester in head group, hCES1c (hCES1c [3]) | Relative amount of hydrolysis metabolite formed, hCES1c (hCES1c [3]) | Relative amount of hydrolysis metabolite formed, pHLS9 [4] | Clint (relative in vitro intrinsic clearance), hCES1c (hCES1c [5]; Clint = Vmax/Km) [AU/min/mg/µM] | Km (hCES1c [5]; read-out: Km, ester hydrolysis by hCES1c, ± S.D., Michaelis–Menten fit, conditions of Table 1) [µM] | Vmax (relative), ester hydrolysis by hCES1c (hCES1c [5]; [9]) [AU/min/mg] | Clint (relative in vitro intrinsic clearance), hCES1b (hCES1b [6]; Clint = Vmax/Km) [AU/min/mg/µM] | Km (hCES1b [6]; read-out: Km, ester hydrolysis by hCES1b, ± S.D., Michaelis–Menten fit, conditions of Table 1) [µM] | Vmax (relative), ester hydrolysis by hCES1b (hCES1b [6]; [9]) [AU/min/mg] | Km (not read [7]) [µM] | Km (not read [8]) [µM]
N-[(2S)-1-amino-3,3-dimethyl-1-oxobutan-2-yl]-1-[(4-fluorophenyl)methyl]-1H-indazole-3-carboxamide [MMB-FUBINACA] | − | + | 78% | − | + | 3.2 | complete transformation | − | + | 87% | complete transformation | 1.2 | 25.7 ± 3.5 | 30.7 ± 0.96 | 1.7 | 40.8 ± 15 | 70.3 ± 7.6 |  | 
COC(=O)[C@@H](NC(=O)c1nn(CCCCF)c2ccccc12)C(C)(C)C [MDMB-4F-BINACA, methyl (2S)-2-[1-(4-fluorobutyl)-1H-indazole-3-carbonyl]amino-3,3-dimethylbutanoate] | − | + | below 1% | − |  |  | 4.3% | − | + | below 1% | around 1% |  |  |  |  |  |  |  | 
C=CCCCn1nc(C(=O)N[C@H](C(=O)OC)C(C)(C)C)c2ccccc21 [MDMB-4en-PINACA, methyl (2S)-3,3-dimethyl-2-[(1-pent-4-enylindazole-3-carbonyl)amino]butanoate] | − | + | below 1% | − |  |  | around 1% | − | + | below 1% | around 1% |  |  |  |  |  |  |  | 
B1 |  |  |  |  |  |  |  |  |  |  |  |  |  |  |  |  |  | 88.9 ± 18 | 
B2 |  |  |  |  |  |  |  |  |  |  |  |  |  |  |  |  |  | 23.2 ± 4.1 | 203 ± 43
